In patent US10278957B2, “Opioid agonist peptides and uses thereof” (Protagonist Therapeutics, Inc., priority 2017, dated 2019):

What was measured:
[1] = SIF assay (stability in simulated intestinal fluid); format: in vitro ADME; settings: for half-life at 20 μM: simulated intestinal fluid (SIF) with pancreatin, simulated intestinal fluid, pH 6.8, pancreatin, 37° C.
Method: SIF was prepared by adding 6.8 g of monobasic potassium phosphate and 10.0 g of pancreatin to 1.0 L of water. After dissolution, the pH was adjusted to 6.8 using NaOH. DMSO stocks (2 mM) were prepared for each of the opioid agonist peptides. Aliquots of the DMSO solutions were dosed into […], each containing 0.5 mL of SIF, which was pre-warmed to 37° C. The final opioid agonist peptide concentration was 20 μM. The vials were kept in a benchtop Thermomixer® for the duration of the experiment. At each timepoint (0, 5, 10, 20, 40, 60, or 360 minutes or 24 hours), 1.0 mL of acetonitrile containing 1% formic acid was added to one vial to terminate the reaction. Samples were stored at 4° C. until the end of the experiment. After the final timepoint was sampled, the tubes were mixed and then centrifuged at 3,000 rpm for 10 minutes. Aliquots of the supernatant were removed, diluted 1:1 into distilled water containing an internal standard, and analyzed by LCMS/MS. The percent of the opioid agonist peptide remaining at each timepoint was calculated based on the peak area response ratio of opioid agonist peptide to the internal standard. Time 0 was set to 100%, and all later timepoints were calculated relative to time 0. Half-lives were calculated by fitting to a first-order exponential decay equation using Graph pad.

[2] = test system: gastro intestinal motility; experiment: Gastro Intestinal Motility Charcoal Transit Assay; format: in vivo
Method: Animals were treated with 0.2 mL croton oil 96 and 72 hours before the gastro intestinal transit (GIT) assay. Animals were fasted overnight prior to charcoal meal dosing. Test and control articles were administered (PO, IP) followed by an oral dose of aqueous suspension of 5% charcoal in 10% gum arabic. […] Charcoal meal test were given 30 min post-test article dose. Twenty minutes after administration of the charcoal test meal, animals were euthanized via CO2 inhalation followed by cervical dislocation, and the small and large intestines were examined to evaluate GI transit and motility. GI transit is expressed as a percentage of the distance traveled by the charcoal test meal divided by the length of the intestine.

visceral pain (writhing) = experiment: Acetic Acid or Acetylcholine Writhing Assay; format: in vivo; settings: PO
Method: Animals were fasted overnight prior to the start of the assay. Test and control article doses, ranging from 3-50 mg/kg, were administered (PO) followed by an IP injection of acetic acid (1.0%) or acetylcholine (10 mg/kg), and immediately placed in a viewing chamber. […] Writhing (abdominal constriction) was defined as a contraction of the abdominal musculature accompanied by arching of the back and extension of the limbs. Latency to first writhe and total number of writhes were recorded. Test articles included oral eluxadoline and two illustrative opioid peptides disclosed herein, Peptide A and Peptide D; and control articles included loperamide and morphine

[3] = SGF assay (stability in simulated gastric fluid); format: in vitro ADME; settings: pig, simulated gastric fluid (SGF) with porcine pepsin, pH 2, pepsin, 37° C.
Method: SGF was prepared by adding 20 mg NaCl, 32 mg porcine pepsin (MP Biochemicals, catalog 02102599), and 70 μl HCl to 10 ml water (final pH=2). Aliquots of SGF (0.5 ml each) were pre-warmed at 37° C. To start the reaction, 1 μl of opioid agonist peptide stock solution (10 mM in DMSO) was added to 0.5 ml SGF and thoroughly mixed such that the final peptide concentration was 20 μM. The reactions were incubated at 37° C. with gentle shaking.
At each timepoint (0, 15, 30, 60 min) 50 µl aliquots were removed and added to 200 ul of acetonitrile containing 0.1% formic acid to quench the reaction. Samples were stored at 4° C. until the end of the experiment and centrifuged at 10,000 rpm for 5 minutes. Aliquots of the supernatant were removed, diluted 1:1 into distilled water containing internal standard, and analyzed by LCMS/MS. The percent of the opioid agonist peptide remaining at each timepoint was calculated based on the peak area response ratio of the opioid agonist peptide to the internal standard. Time 0 was set to 100%, and all later timepoints were calculated relative to time 0. Half-lives were calculated by fitting to a first-order exponential decay equation using GraphPad.

[4] = Plasma assay (stability in mouse plasma); format: in vitro ADME; settings: 37° C.
Method: Peptides of interest (20 uM) were incubated with pre-warmed mouse plasma (BioreclamationIVT) at 37° C. Aliquots were taken at various time points up to 24 hours (e.g. 0, 0.25, 1, 3, 6 and 24 hr), and immediately quenched with 4 volumes of organic solvent (acetonitrile/methanol (1:1) and 0.1% formic acid, containing 1 μM internal standard). Quenched samples were stored at 4° C. until the end of the experiment and centrifuged at 17,000 g for 15 minutes. The supernatant was diluted 1:1 with deionized water and analyzed using LC-MS. Percentage remaining at each time point was calculated based on the peak area ratio (analyte over internal standard) relative to the initial level at time zero. Half-lives were calculated by fitting to a first-order exponential decay equation using Graph Pad Prism.

δ-opioid receptor (DOR) = biological target: T1, δ-opioid receptor (DOR) (Homo sapiens, UniProt P41143); experiment: DOR agonist cAMP assay (HitHunter cAMP, forskolin-stimulated); format: cell-based
T1 construct: host or cells: cAMP Hunter CHO-K1 OPRD1 Gαi cell line
T1 sequence (P41143 whole entry): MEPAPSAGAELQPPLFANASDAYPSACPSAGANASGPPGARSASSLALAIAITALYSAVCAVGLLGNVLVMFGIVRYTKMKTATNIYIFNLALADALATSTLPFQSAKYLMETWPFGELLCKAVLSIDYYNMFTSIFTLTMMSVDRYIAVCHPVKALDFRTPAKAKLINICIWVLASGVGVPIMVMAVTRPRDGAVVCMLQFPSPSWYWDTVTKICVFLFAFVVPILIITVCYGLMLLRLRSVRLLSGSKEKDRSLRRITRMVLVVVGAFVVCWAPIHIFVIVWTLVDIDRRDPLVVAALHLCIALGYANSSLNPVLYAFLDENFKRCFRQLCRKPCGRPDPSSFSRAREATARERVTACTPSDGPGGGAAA
How it was run: (§1)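 CHO-K1 Gαi cells expressing OPRM1 or OPRD1 were exposed 30 min at 37° C to 11-point threefold agonist dilutions, in duplicate, with 20 uM forskolin final. cAMP quantified by EFC chemiluminescent competitive immunoassay against cAMP standards. EC50 by four-parameter Hill nonlinear regression.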

μ-opioid receptor (MOR) = biological target: T2, μ-opioid receptor (MOR) (Homo sapiens, UniProt P35372); experiment: MOR agonist cAMP assay (HitHunter cAMP, forskolin-stimulated); format: cell-based
T2 construct: host or cells: cAMP Hunter CHO-K1 OPRM1 Gαi cell line
T2 sequence (P35372 whole entry): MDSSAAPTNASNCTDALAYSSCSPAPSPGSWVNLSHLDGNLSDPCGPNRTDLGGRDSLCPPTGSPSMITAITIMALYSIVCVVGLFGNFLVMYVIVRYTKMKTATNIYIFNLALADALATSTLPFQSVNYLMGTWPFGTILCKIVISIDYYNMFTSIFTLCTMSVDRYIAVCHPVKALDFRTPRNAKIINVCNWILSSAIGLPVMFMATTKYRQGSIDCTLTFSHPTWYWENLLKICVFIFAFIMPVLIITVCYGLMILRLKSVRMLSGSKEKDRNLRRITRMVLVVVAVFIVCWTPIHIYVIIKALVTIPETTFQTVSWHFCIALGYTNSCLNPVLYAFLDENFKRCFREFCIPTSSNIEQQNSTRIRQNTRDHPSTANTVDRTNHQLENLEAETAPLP
How it was run: as §1

Row | Compound | SIF (min) ([1]; Table 4, SIF half-life) | % inhibition of GI motility ([2]; Table 4, orally dosed, charcoal transit) | inhibition of small intestine motility as compared to eluxadoline ([2]; orally administered, all doses tested, FIG. 1A) | inhibition of GI transit as compared to eluxadoline ([2]; orally administered, all doses tested, FIGS. 1B and 1C) | effect on pain (writhing study) (visceral pain (writhing); FIGS. 3A and 3B) | visceral pain (writhing study) (visceral pain (writhing); at 30 mg/kg and 10 mg/kg, FIGS. 2A and 2B) | half-life at 20 μM [3] | half-life at 20 μM [1] | half-life at 20 uM [4] | EC50 (δ-opioid receptor (DOR)) | EC50 (μ-opioid receptor (MOR))
1 | Cc1cc(O)cc(C)c1C[C@H](N)C(=O)N[C@H](C)C(=O)NCC(=O)N[C@H](CC(=O)N(C)CC(N)=O)Cc1ccccc1 [Seq. ID 43, H-DMT-a-G-bhF-Sar-NH2] | **** (for SIF half-life values, **** indicates >1290) | ** (** indicates between 50% and 100%) | slightly greater inhibition of small intestine motility | greater inhibition of GI transit | positive effect | significantly reduced visceral pain |  |  |  |  | 
2 | CCCC[C@H](NC(=O)[C@H](Cc1ccccc1)NC(=O)CNC(=O)[C@@H](C)NC(=O)[C@@H](N)Cc1c(C)cc(O)cc1C)C(N)=O [compound 37] |  |  |  |  |  |  | 0.167 to 6 h | ≤ 0.167 h | 6 to 24 h |  | 
3 | Cc1cc(O)cc(C)c1C[C@H](N)C(=O)N[C@H](C)C(=O)NCC(=O)N[C@H](CC(=O)N(C)CC(N)=O)Cc1ccccc1 [compound 43] |  |  |  |  |  |  | > 24 h | 6 to 24 h | 6 to 24 h | < 1 nM | 
4 | Cc1cc(O)cc(C)c1C[C@H](N)C(=O)N[C@H](CC(=O)O)C(=O)NCC(=O)N[C@H](CC(=O)N(C)CC(N)=O)Cc1ccccc1 [compound 83] |  |  |  |  |  |  | > 24 h | > 24 h | > 24 h | < 1 nM | < 1 nM
